According to patent publication US20060160894A1, “Benzamides as ppar modulators” (LABORATORIOS S.A.L.V.A.T.,S.A., priority 2003, published 2006):

Tests used:
GST-hPPARγ2 = target: T1, GST-hPPARγ2 (Homo sapiens, UniProt P37231); assay: Assay of binding to the PPARγ2 ([3H]BRL-49853 displacement); conditions: Table 19; GST-hPPARγ2, [3H]BRL-49853 100 nM; read-out: Affinity PPARγ(1)
T1 construct: the complete cDNA of the […] human PPARs were cloned into pGEX4T2; made in house; host or cells: Escherichia coli BL21 (DE3)
T1 sequence (P37231 1-505): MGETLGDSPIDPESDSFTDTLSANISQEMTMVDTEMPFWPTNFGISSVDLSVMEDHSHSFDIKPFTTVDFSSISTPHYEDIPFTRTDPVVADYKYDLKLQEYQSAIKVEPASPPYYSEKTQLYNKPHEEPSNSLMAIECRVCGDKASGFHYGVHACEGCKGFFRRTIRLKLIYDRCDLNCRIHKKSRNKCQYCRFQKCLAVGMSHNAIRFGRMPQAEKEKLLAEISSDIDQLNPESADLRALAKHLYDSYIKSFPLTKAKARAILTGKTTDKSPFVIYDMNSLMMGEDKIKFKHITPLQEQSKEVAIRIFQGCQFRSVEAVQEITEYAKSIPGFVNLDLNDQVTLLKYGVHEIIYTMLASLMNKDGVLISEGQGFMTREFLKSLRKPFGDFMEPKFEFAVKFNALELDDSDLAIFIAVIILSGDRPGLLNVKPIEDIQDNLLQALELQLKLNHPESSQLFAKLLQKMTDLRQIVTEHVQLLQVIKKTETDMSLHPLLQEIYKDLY
Protocol: Assay of Binding to the PPARγ2
The cDNA encoding for the open reading frame of the hPPARγ2 is amplified by PCR (polymerase chain reaction) and inserted in the plasmid pGEX-4T-2.
The reaction mixture was transferred to a Multiscreen Durapore (Millipore) microplate containing glutathione-Sepharose 4B in every well. The reaction mixture was left to incubate with the resin during 10 min, and then centrifuged at 735 g during 2 min. To dissociate the receptor bound to the resin, reduced glutathione 10 mM is added and incubated during 10 min. The receptor was eluted by centrifugation. Then, 800 μL of scintillation liquid were added to the elution and the contained radioactivity was quantified by liquid scintillation spectroscopy (Microbeta Wallac, Perkin Elmer).

PPARγ LBD = target: T2, PPARγ LBD (Homo sapiens, UniProt P37231); assay: LBD-hPPARs transactivation assay (GAL4-LBD luciferase reporter in COS-7 cells); assay type: cell-based; conditions: 48 h
T2 construct: expressed in transfected cells; host or cells: COS-7
T2 sequence (P37231 238-503 limits assumed): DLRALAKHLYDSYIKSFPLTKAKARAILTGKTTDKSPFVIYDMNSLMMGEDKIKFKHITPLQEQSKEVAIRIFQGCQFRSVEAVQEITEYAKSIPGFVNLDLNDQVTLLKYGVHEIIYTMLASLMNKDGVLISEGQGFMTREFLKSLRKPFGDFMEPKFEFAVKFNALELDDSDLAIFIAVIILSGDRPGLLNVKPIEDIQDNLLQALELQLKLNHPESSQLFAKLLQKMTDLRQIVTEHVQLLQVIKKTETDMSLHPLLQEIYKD
Text: LBD-hPPARs Transactivation Assay
COS-7 cells were cultivated in 24-well plates and transfected with the pFACMV plasmids that encode the chimeric proteins containing the GAL4 DNA binding domain fused to the PPARγ LBD. The reporter plasmid for the foregoing constructions was pFR-Luc, which contains five repetitions of the GAL4-response element in front of a promoter that controls the transcription of the luciferase gene. Lipofectamine was used as a transfection agent.
The plasmids of the chimeric receptors and the reporter gene were inserted in the cells by transitory transfection in COS-7 cells in culture.

O=C(N[C@@H](Cc1ccc(OCc2ccccc2)cc1)C(=O)O)c1ccc(OCCOc2cccc(Br)c2)cc1 [Example 161, (2S)-3-(4-Benzyloxyphenyl)-2-{4-[2-(3-bromophenoxy)ethoxy]benzoylamino}propionic acid]
Ki (GST-hPPARγ2): 1000 to 3000 nM | Functional activity PPARγ (PPARγ LBD): Antagonist

Cc1nc2ccccc2nc1OCCOc1ccc(C(=O)N(CCC(=O)O)Cc2cccc(OCc3ccccc3)c2)cc1 [Example 170, 3-{(3-Benzyloxybenzyl)-{4-[2-(3-methylquinoxalin-2-yloxy)ethoxy]benzoyl}amino}propionic acid]
Ki (GST-hPPARγ2): 1000 to 3000 nM | Functional activity PPARγ (PPARγ LBD): Antagonist

COC(=O)[C@H](Cc1ccc(OCc2ccccc2)cc1)NC(=O)c1ccc(OCc2ccccc2C)cc1 [Example 27, (2S)-3-(4-Benzyloxyphenyl)-2-[4-(2-methylbenzyloxy)benzoylamino]propionic acid methyl ester]
Ki (GST-hPPARγ2): < 1000 nM | Functional activity PPARγ (PPARγ LBD): Antagonist

O=C(N[C@@H](Cc1ccc(OCc2ccccc2)cc1)C(=O)O)c1ccc(OCCCc2ccccc2)cc1 [Example 153, (2S)-3-(4-Benzyloxyphenyl)-2-[4-(3-phenylpropoxy)benzoylamino]propionic acid]
Ki (GST-hPPARγ2): 1000 to 3000 nM | Functional activity PPARγ (PPARγ LBD): Partial agonist

Cc1nc2ccccc2nc1OCCOc1ccc(C(=O)N[C@@H](Cc2ccc(OCc3ccccc3)cc2)C(=O)N(C)C)cc1 [Example 267, N-[(1S)-2-(4-Benzyloxyphenyl)-1-dimethylcarbamoylethyl]-4-[2-(3-methylquinoxalin-2-yloxy)ethoxy]benzamide]
Ki (GST-hPPARγ2): 1000 to 3000 nM | Functional activity PPARγ (PPARγ LBD): Partial agonist

CCCCc1ccc(COc2ccc(C(=O)N(CCC(=O)O)Cc3cccc(OCc4ccccc4)c3)cc2)cc1 [Example 218, 3-{(3-Benzyloxybenzyl)-[4-(4-butylbenzyloxy)benzoyl]amino}propionic acid]
Ki (GST-hPPARγ2): < 1000 nM | Functional activity PPARγ (PPARγ LBD): Antagonist

O=C(NC(Cc1c[nH]c2ccc(Br)cc12)C(=O)O)c1ccc(OCCN(Cc2ccccc2)Cc2ccccc2)cc1 (centres unmarked) [Example 142, 3-(5-Bromo-1H-indol-3-yl)-2-[4-(2-dibenzylaminoethoxy)benzoylamino]propionic acid]
Ki (GST-hPPARγ2): 1000 to 3000 nM | Functional activity PPARγ (PPARγ LBD): Antagonist

O=C(N[C@@H](Cc1ccc(OCc2ccccc2)cc1)C(=O)O)c1cccc(OCc2cccc(Oc3ccccc3)c2)c1 [Example 188, (2S)-3-(4-Benzyloxyphenyl)-2-[3-(3-phenoxybenzyloxy)benzoylamino]propionic acid]
Ki (GST-hPPARγ2): < 1000 nM | Functional activity PPARγ (PPARγ LBD): Partial agonist

O=C(O)CN(Cc1cccc(Oc2ccccc2)c1)C(=O)c1ccc(OCCN(Cc2ccccc2)Cc2ccccc2)cc1 [Example 146, {[4-(2-Dibenzylaminoethoxy)benzoyl]-(3-phenoxybenzyl)amino}acetic acid]
Ki (GST-hPPARγ2): 1000 to 3000 nM | Functional activity PPARγ (PPARγ LBD): Antagonist

CCCCc1ccc(COc2ccc(C(=O)N[C@@H](CC3CCCCC3)C(=O)O)cc2)cc1 [Example 210, (2S)-2-[4-(4-Butylbenzyloxy)benzoylamino]-3-cyclohexylpropionic acid]
Ki (GST-hPPARγ2): < 1000 nM | Functional activity PPARγ (PPARγ LBD): Agonist

O=C(N[C@@H](Cc1ccc(OCc2ccccc2)cc1)C(=O)O)c1ccc(OCc2ccccc2Br)cc1 [Example 238, (2S)-3-(4-Benzyloxyphenyl)-2-[4-(2-bromobenzyloxy)benzoylamino]propionic acid]
Ki (GST-hPPARγ2): < 1000 nM | Functional activity PPARγ (PPARγ LBD): Antagonist

O=C(O)CCN(Cc1cccc(OCc2ccccc2)c1)C(=O)c1ccc(OCCN(Cc2ccccc2)Cc2ccccc2)cc1 [Example 162, 3-{(3-Benzyloxybenzyl)-[4-(2-dibenzylaminoethoxy)benzoyl]amino}propionic acid]
Ki (GST-hPPARγ2): < 1000 nM | Functional activity PPARγ (PPARγ LBD): Antagonist

Cc1nc2ccccc2nc1OCCOc1ccc(C(=O)N[C@@H](Cc2ccc(OCc3ccccc3)cc2)C(=O)O)cc1 [Example 160, (2S)-3-(4-Benzyloxyphenyl)-2-{4-[2-(3-methylquinoxalin-2-yloxy)ethoxy]benzoylamino}propionic acid]
Ki (GST-hPPARγ2): > 3000 nM | Functional activity PPARγ (PPARγ LBD): Partial agonist
